According to ChEMBL document CHEMBL1201862, “PubChem BioAssay data set” (2004):
The source made the active and inactive calls.

What was measured:
Cytochrome P450 1A2 = target: T1, Cytochrome P450 1A2 (Homo sapiens, UniProt P05177);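 also: PubChem cytochrome P450 panel assay, CYP1A2 panel member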
T1 sequence (P05177 whole entry): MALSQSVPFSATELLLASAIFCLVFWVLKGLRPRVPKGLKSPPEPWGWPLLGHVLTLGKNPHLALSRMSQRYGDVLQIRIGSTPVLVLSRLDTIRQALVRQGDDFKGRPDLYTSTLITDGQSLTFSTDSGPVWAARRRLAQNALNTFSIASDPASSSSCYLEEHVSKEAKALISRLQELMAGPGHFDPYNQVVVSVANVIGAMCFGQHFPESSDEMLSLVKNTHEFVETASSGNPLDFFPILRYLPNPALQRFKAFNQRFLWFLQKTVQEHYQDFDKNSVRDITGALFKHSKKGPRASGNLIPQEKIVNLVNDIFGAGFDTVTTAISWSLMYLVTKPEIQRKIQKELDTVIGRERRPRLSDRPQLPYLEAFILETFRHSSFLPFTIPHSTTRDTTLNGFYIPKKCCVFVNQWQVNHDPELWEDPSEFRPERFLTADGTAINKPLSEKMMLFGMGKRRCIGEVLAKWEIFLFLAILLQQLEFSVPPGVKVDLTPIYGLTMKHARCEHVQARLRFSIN

Cytochrome P450 3A4 = Cytochrome P450 3A4 (Homo sapiens, UniProt P08684);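 also: CYP3A4 tested as one member of a cytochrome P450 panel screen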
Chain of Cytochrome P450 3A4 (P08684 whole entry): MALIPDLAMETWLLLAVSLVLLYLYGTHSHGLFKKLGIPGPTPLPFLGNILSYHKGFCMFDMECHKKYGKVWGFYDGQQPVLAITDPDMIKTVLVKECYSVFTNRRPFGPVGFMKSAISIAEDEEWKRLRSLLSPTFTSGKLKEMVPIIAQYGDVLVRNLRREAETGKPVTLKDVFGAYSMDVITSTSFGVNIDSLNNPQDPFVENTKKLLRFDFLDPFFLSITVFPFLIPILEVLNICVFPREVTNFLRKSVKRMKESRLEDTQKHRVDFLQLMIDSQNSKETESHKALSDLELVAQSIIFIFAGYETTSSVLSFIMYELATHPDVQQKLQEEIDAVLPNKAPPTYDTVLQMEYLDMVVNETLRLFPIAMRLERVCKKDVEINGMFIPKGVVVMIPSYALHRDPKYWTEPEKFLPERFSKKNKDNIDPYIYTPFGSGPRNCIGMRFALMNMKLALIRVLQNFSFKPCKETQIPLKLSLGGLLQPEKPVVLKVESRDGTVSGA

Cytochrome P450 2C19 = Cytochrome P450 2C19 (Homo sapiens, UniProt P33261); experiment: Cytochrome panel assay with activity outcomes. Panel member name: p450-cyp2c19 Compounds with AC50 equal or less than 10 uM are considered active; type: functional; conditions: read-out: AC50
Chain of Cytochrome P450 2C19 (P33261 whole entry): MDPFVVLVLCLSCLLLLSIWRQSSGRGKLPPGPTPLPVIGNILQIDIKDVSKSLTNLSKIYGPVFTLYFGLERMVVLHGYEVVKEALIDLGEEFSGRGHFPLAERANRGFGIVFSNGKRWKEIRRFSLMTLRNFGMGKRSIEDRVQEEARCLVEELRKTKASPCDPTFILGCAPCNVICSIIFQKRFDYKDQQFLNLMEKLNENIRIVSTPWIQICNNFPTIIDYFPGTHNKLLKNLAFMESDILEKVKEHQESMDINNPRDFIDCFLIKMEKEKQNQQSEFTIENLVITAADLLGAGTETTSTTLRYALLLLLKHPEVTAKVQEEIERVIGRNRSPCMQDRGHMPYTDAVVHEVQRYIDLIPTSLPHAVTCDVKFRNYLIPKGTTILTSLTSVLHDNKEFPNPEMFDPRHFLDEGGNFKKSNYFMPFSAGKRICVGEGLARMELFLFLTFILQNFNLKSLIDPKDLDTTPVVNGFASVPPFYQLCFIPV

[1] = Luminescence Cell-Based Dose Confirmation HTS to Identify Activators of 5'UTR Stem-Loop Driven Alpha-Synuclein mRNA Translation in H4 Neuroglioblastoma Cells. [Related pubchem assays: 1829 (Project Summary), 1814 (Primary HTS)]; type: functional
H4 = experiment: Luminescence Cell-Based Dose Response HTS to Identify Activators of 5'UTR Stem-Loop Driven Prion Protein mRNA Translation in H4 Neuroglioblastoma Cells. [Related pubchem assays: 1829 (Project Summary), 1814 (Primary HTS)]; type: functional; conditions: Homo sapiens
[2] = Luminescence Cell-Based Dose Response HTS to Identify Activators of Luciferase Translation or Activity in H4 […] Cells. [Related pubchem assays: 1829 (Project Summary), 1814 (Primary HTS)]; type: functional
[3] = target: T2, Polyadenylate-binding protein 1 (Homo sapiens, UniProt P11940); experiment: PABP1 MLLE–PAM2 interaction inhibitors, dose response, miRNA deadenylation inhibitor project, biochemical, fluorescence polarization, Cy5-PAM2 peptide, secondary (AID 602260); type: functional; conditions: read-out: IC50_Mean
T2 sequence (P11940 whole entry): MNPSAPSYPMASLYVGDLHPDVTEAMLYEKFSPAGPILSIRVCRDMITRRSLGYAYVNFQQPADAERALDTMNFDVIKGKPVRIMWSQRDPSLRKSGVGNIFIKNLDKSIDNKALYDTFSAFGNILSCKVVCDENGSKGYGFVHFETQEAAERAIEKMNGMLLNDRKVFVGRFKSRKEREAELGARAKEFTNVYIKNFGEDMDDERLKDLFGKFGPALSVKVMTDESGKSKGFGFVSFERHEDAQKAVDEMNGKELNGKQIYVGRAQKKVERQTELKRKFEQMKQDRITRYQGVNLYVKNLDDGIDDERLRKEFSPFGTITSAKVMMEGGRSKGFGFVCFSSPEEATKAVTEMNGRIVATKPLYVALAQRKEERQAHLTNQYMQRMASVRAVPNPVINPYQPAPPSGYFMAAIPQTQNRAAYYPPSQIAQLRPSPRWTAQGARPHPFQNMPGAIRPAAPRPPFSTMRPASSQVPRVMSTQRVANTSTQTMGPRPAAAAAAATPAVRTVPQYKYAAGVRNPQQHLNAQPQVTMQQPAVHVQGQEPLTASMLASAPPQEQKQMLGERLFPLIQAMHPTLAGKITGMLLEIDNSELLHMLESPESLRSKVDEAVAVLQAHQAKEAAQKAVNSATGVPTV

[4] = target: T2, Polyadenylate-binding protein 1; experiment: PABP1 MLLE–PAM2 binding inhibitor potency, dose response, biochemical, fluorescence polarization, FITC-PAM2 peptide (AID 602259); type: functional; conditions: read-out: IC50_Mean
[5] = microbe, parasite or virus in culture; type: functional; conditions: Mycobacterium tuberculosis
[6] = Luminescence Cell-Based Dose Response HTS to Identify Inhibitors of 5'UTR Stem-Loop Driven Prion Protein mRNA Translation in H4 Neuroglioblastoma Cells. [Related pubchem assays: 1827 (Project Summary), 1813 (Primary HTS)]; type: functional
[7] = inhibitors of SNCA 5'UTR-driven reporter translation, confirmation, H4 neuroglioma cells, luminescence (AID 1988); type: functional, cell-based
[8] = inhibitors of firefly luciferase expression or activity, dose response, H4 neuroglioma cells, luminescence (AID 1990); type: functional, cell-based
[9] = growth suppression of PTEN-null colon cells, dose response, cell-based, HCT116 PTEN knockout (AID 1047); type: functional;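 also: HCT116 colon tumor cells with PTEN knocked out; cells exposed to compound for 60 hours before readout; potency for loss of cell viability measured by luminescence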
[10] = growth suppression of beta-catenin-knockout colon cells, dose response, cell-based, HCT116, human colon tumor (AID 1045); type: functional;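 also: HCT116 colon tumor cells with beta catenin knocked out; cells exposed to compound for 60 hours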
[11] = C. albicans growth with fluconazole, confirmation, fluorescence, retest (AID 2467); type: functional, cell-based
[12] = NIH-3T3 fibroblast cytotoxicity, dose response, cytotoxicity control, cell-based, fluorescence, Alamar Blue, secondary assay (AID 2327); type: functional;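 also: NIH-3T3 mouse fibroblasts cultured with fluconazole at 8 µg/mL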
Cytochrome P450 2D6 = Cytochrome P450 2D6 (Homo sapiens, UniProt P10635);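 also: CYP2D6 member of a cytochrome P450 panel assay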
Chain of Cytochrome P450 2D6 (P10635 whole entry): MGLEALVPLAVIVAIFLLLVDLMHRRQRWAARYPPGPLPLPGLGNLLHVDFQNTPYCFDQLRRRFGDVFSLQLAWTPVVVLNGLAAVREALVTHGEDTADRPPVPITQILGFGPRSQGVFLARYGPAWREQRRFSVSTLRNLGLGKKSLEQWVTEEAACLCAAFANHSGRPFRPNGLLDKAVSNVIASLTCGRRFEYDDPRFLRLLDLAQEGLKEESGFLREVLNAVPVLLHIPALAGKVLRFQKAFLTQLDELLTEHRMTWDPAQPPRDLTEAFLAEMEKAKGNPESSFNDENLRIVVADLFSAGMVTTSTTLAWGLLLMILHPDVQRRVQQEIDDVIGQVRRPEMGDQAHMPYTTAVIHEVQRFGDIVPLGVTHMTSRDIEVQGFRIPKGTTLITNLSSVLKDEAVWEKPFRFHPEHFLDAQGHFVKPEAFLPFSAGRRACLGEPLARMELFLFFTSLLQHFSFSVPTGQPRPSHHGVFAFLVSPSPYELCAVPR

INS1 = experiment: beta cell apoptosis inhibitors, cytokine rescue, dose response, luminescence, retest (AID 449756); type: functional, cell-based; conditions: Rattus norvegicus;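 also: cell death triggered by IL-1 beta plus TNF-alpha plus IFN-gamma mixture; protective hits raise ATP signal compared with cytokine alone wells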
Streptokinase A = target: T3, Streptokinase A (Streptococcus pyogenes serotype M1, UniProt P10520); experiment: S. pyogenes streptokinase expression inhibitors, potency, dose response, plasminogen activation absorbance, OD405 (AID 1914); type: functional, Streptococcus pyogenes M1 GAS;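 also: secreted streptokinase activity via plasminogen activation per viability signal from cell pellet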
T3 sequence (P10520 whole entry): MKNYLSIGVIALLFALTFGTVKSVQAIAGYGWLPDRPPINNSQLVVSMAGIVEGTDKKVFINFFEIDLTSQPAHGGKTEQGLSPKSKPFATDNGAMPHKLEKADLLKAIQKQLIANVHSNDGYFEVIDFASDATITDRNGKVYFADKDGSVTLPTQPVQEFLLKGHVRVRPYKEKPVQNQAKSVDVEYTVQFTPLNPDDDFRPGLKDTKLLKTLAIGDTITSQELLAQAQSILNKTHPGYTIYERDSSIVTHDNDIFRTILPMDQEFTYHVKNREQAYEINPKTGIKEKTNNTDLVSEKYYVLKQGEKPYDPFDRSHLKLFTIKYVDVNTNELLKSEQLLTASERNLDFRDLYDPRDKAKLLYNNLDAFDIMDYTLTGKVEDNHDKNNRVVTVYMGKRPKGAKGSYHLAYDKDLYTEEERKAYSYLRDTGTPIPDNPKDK

[13] = Luminescence Cell-Based Dose Retest to Confirm Inhibitors of Cancer Stem Cells. [Related pubchem assays (depositor defined):AID2717, AID2721]; type: functional; conditions: Homo sapiens
Streptococcus = experiment: Group A Streptococcus viability loss, dose response, counter-screen for streptokinase expression inhibitor project, luminescence, BacTiterGlo (AID 1915); type: functional, organism-based;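 also: potency for reduction of bacterial viability or growth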
[14] = test system: Streptococcus sp. 'group A'; experiment: growth inhibition of control SK(-) GAS strain, dose response, counter-screen for streptokinase expression inhibitor project, luminescence, kanamycin, BacTiterGlo, confirmation (AID 1900); type: functional, organism-based

SMILES: O=C(OCc1ccc(Cl)cc1)c1ccccc1C(=O)c1ccccc1
- AC50 (Cytochrome P450 1A2): 3.55 µM (inconclusive)
- AC50 (Cytochrome P450 3A4): 17.8 µM (inconclusive)
- AC50 (Cytochrome P450 2C19): 0.0891 µM (inconclusive)

SMILES: CCNc1ncc2nc(-c3cc(F)cc(F)c3)c(=O)n(CCc3ccccc3)c2n1
- AC50 (Cytochrome P450 1A2): 25.1 µM (inconclusive)
- AC50 (Cytochrome P450 3A4): 12.6 µM (inconclusive)

SMILES: COc1ccc(C(=O)N=C(N)Nc2nc3ccccc3o2)cc1
- EC50 [1]: > 120 µM (not active)
- EC50 (H4): 29.5 µM (active)
- EC50 [2]: 24.2 µM (active)

SMILES: Cc1cccc(-c2nc(=S)c3c(o2)CCCC3)c1
- IC50 [3]: > 66 µM (inactive)
- IC50 [4]: > 66 µM (inactive)

SMILES: CC1CCc2c(sc3ncnc(NCCCOC(C)C)c23)C1 (stereo unspecified)
- CC50 [5]: > 40 µM (active)

SMILES: CC(C)CCn1c(N2CCN(c3cccc(Cl)c3)CC2)nc2c1c(=O)[nH]c(=O)n2C
- EC50 [6]: > 60 µM (not active)
- EC50 [7]: > 120 µM (not active)
- EC50 [8]: 18.9 µM (active)
- EC50 [9]: 26.1 µM (active)
- EC50 [10]: 33.5 µM (active)

SMILES: Cc1ccc2sc(C)[n+](CCC(C)S(=O)(=O)[O-])c2c1 (stereo unspecified)
- IC50 [3]: > 66 µM (inactive)
- IC50 [4]: > 66 µM (inactive)

SMILES: COc1ccccc1-c1nccc(NC2CCNCC2)n1
- AC50 (Cytochrome P450 1A2): 15.8 µM (inconclusive)
- AC50 (Cytochrome P450 2C19): 1.58 µM (inconclusive)

SMILES: Fc1cccc(CCN2CCNC[C@H]2Cc2cccc3ccccc23)c1
- CC50 [5]: 26.2 µM (active)

SMILES: c1ccc(CN2CCN(c3nc(-c4ccccn4)nc4ccccc34)CC2)cc1
- EC50 [9]: 10.6 µM (active)
- EC50 [10]: 8.05 µM (active)

SMILES: COc1cc(OC)cc(N(C(=O)C2COc3ccccc3O2)C(C(=O)NC2CCCCC2)c2ccc(O)cc2)c1 (stereo unspecified)
- EC50 [11]: 0.798 µM (inconclusive)
- EC50 [12]: 94.7 µM (active)

SMILES: Brc1ccc2oc3c(N4CCOCC4)ncnc3c2c1
- EC50 [1]: 18.5 µM (active)
- EC50 (H4): 14.7 µM (active)
- EC50 [2]: 4.18 µM (active)

SMILES: CCOC(=O)N1CCN(C(=O)c2cccn3c(=O)c4cc(Cl)ccc4nc23)CC1
- AC50 (Cytochrome P450 1A2): 25.1 µM (inconclusive)

SMILES: CN1CCN(C(=O)c2ccc(-n3cccc3)cc2)CC1
- AC50 (Cytochrome P450 1A2): 25.1 µM (inconclusive)
- AC50 (Cytochrome P450 2D6): 15.8 µM (inconclusive)
- AC50 (Cytochrome P450 2C19): 25.1 µM (inconclusive)

SMILES: CCOC(=O)c1sc(NC(=O)c2c(C)nn(Cc3ccccc3)c2C)cc1C
- EC50 [9]: 30.4 µM (active)
- AC50 (INS1): 37.2 µM (active)
- EC50 [10]: 27.7 µM (active)

SMILES: CCSc1sccc1C1C(C#N)=C(N)N(c2cccnc2)C2=C1C(=O)CCC2 (stereo unspecified)
- IC50 [3]: > 66 µM (inactive)
- IC50 [4]: > 66 µM (inactive)

SMILES: COc1cccc(NC(=O)CSc2nc3ccccc3cc2Cc2ccccc2)c1
- AC50 (Cytochrome P450 1A2): 4.47 µM (inconclusive)

SMILES: Cn1c(=O)c(-c2ccc(Cl)cc2)nc2cnc(Nc3ccccc3)nc21
- AC50 (Cytochrome P450 1A2): 31.6 µM (inconclusive)

SMILES: COc1ccc(/C=C/C(=O)Nc2ccccc2C(=O)N2CCCC2)cc1
- AC50 (Cytochrome P450 1A2): 28.2 µM (inconclusive)
- AC50 (Cytochrome P450 3A4): 1 µM (inconclusive)

SMILES: Cn1c(=O)c(C(=O)CSc2nnc(Nc3ccccc3)s2)c(N)n(Cc2ccccc2)c1=O
- EC50 [9]: 8.05 µM (active)
- EC50 [10]: 9.15 µM (active)

SMILES: Cc1cnn(-c2cc(Oc3ccccc3)ncn2)c1
- EC50 [1]: 1.11 µM (active)
- EC50 (H4): 11 µM (active)
- EC50 [2]: 97.4 µM (active)

SMILES: CCOc1cc(C(=S)N2CCOCC2)ccc1OC
- IC50 [3]: > 66 µM (inactive)
- IC50 [4]: > 66 µM (inactive)

SMILES: Cc1n[nH]c(SC(C(=O)c2ccccc2)c2ccccc2)n1 (stereo unspecified)
- AC50 (Cytochrome P450 1A2): 39.8 µM (inconclusive)
- AC50 (Cytochrome P450 2D6): 20 µM (inconclusive)

SMILES: CCC(C(=O)NC1CCCC1)N(C(=O)Cn1nnc(-c2ccc(C)o2)n1)c1cnc2ccccc2c1 (stereo unspecified)
- EC50 [9]: 17.2 µM (active)
- EC50 [10]: 17.5 µM (active)

SMILES: O=C(Nc1nc(-c2cc(Cl)sc2Cl)cs1)c1cccs1
- EC50 (Streptokinase A): > 50 µM (not active)
- AC50 [13]: 1.13 µM (active)
- EC50 (Streptococcus): 18.1 µM (active)
- CC50 [5]: 25.9 µM (active)
- EC50 [14]: 14.2 µM (active)

SMILES: CC1Cc2ccccc2N1C(=O)CSc1n[nH]c2c3cc(F)ccc3nc-2n1 (stereo unspecified)
- EC50 [9]: 24.5 µM (active)
- EC50 [10]: 25 µM (active)

SMILES: COCCSc1nnc(NC(=O)CCS(=O)(=O)c2ccccc2)s1
- EC50 [11]: 3.97 µM (active)
- EC50 [12]: > 150 µM (inactive)

SMILES: COc1ccc(OCC(=O)NC(=S)Nc2ccc(S(=O)(=O)Nc3cc(OC)nc(OC)n3)cc2)cc1
- IC50 [3]: > 66 µM (inactive)
- IC50 [4]: > 66 µM (inactive)

SMILES: Cc1ccc(S(=O)(=O)c2nc(Nc3nccs3)sc2Cl)cc1
- CC50 [5]: > 40 µM (active)

SMILES: COCCSc1nnc(NC(=O)C(C)(C)C)s1
- AC50 (Cytochrome P450 1A2): 25.1 µM (inconclusive)

SMILES: Oc1ccc(C(=S)N2CCCCCC2)cc1
- IC50 [3]: > 66 µM (inactive)
- IC50 [4]: > 66 µM (inactive)

SMILES: Cc1ccc(NC(=O)c2cc(-c3ccccc3)nn2-c2ccccc2)c(Br)c1
- EC50 [9]: 34.6 µM (active)
- EC50 [10]: 23.5 µM (active)

SMILES: CC(=O)c1c(N2CCOCC2)nc(=S)n(-c2ccccc2)c1C
- IC50 [3]: > 66 µM (inactive)
- IC50 [4]: > 66 µM (inactive)

SMILES: O=C(CSc1ccccc1C(=O)O)NC1CCCCCC1
- IC50 [3]: > 66 µM (inactive)
- IC50 [4]: > 66 µM (inactive)

SMILES: CC(=O)NC(Cc1ccc(F)cc1)C(=O)O (stereo unspecified)
- AC50 (Cytochrome P450 1A2): 0.01 µM (inconclusive)

SMILES: COc1cc2c(cc1OC)CN(C(=O)CSc1ccccc1C)CC2
- IC50 [3]: > 66 µM (inactive)
- IC50 [4]: > 66 µM (inactive)

SMILES: Cc1ccccc1Nc1nc(N)nc(O)c1N=O
- IC50 [3]: > 66 µM (inactive)
- IC50 [4]: 38.2 µM (inactive)

SMILES: CCCCc1noc2c1/C(=N\O)CC(c1ccccc1)C2 (stereo unspecified)
- EC50 [1]: > 120 µM (not active)
- EC50 (H4): 27.9 µM (active)
- EC50 [2]: 6.02 µM (active)
